# From US7435716B2, “Compounds pharmaceutical compositions and methods for treatment of bacteremia and/or septicemia” (Ramot At Tel Aviv University Ltd., priority 2001, dated 2008)
# Where two headings read alike, the source gives them in different places.
# What was measured:
# [1] = system: erythromycin resistant Klebsiella pneumoniae; experiment: Mice protection assay; assay type: in vivo; details: for Mice survival (Dead/Total): intraperitoneally; for protection of mice, in words: with erythromycin
# Protocol: Sublethal dose of Klebsiella pneumoniae (2×10^5 cfu) were injected intreperitonially to mice. […] After additional 24 hours, the mice were treated once with half dose. Survival was followed daily for 7 days.
# Polymyxin octapeptide conjugated with the tripeptide formyl Met-Leu-Phe (fMLF, SEQ ID NO:1) was assayed in combination with erythromycin for the ability to provide protection against Klebsiella pneumoniae infection in an in vivo infection model previously described (Ofek et al., 1994).
# [2] = system: Klebsiella pneumoniae clinical isolates; experiment: Sensitizing activity for clinical isolates (MIC of antibiotic); assay type: cell-based; details: antibiotic alone
# Protocol: (§1) Experiments for the determining the sensitizing activity of the conjugates were performed similar to those described for PMBN in previous studies (Ofek et al 1994). All conjugates were teted at 20 μg/ml to determine the MIC of the indicated antibiotic. Antibiotics were purchased from Sigma (novobiocin, erythromycin and gentamycin), Bristol (Amikin), Galaxo (Zinacef), and B.R.L (augmentin). Numbers in brackets indicate number of is strains tested.
# [3] = system: Pseudomonas aeruginosa clinical isolates; experiment: as above; assay type: cell-based; details: antibiotic alone
# Protocol: as §1
# Escherichia coli = experiment: Sensitization assay (fold decrease in MIC of novobiocin); assay type: cell-based; details: sensitization towards novobiocin, peptide 50 μg/ml, relative to PMBN
# Protocol: (§2) Bacterial suspension (10 μL, 1×10^5 CFU) was inoculated into microtiter plate wells containing 100 μL of a serial two-fold dilution (1000-0.5 μg/mL) of novobiocin (Sigma) in ISB. To each well, 10 μL of the test peptide was added to a final concentration of 50 μg/mL. The fold decrease in MIC for novobiocin comparing wells with and without test peptides was calculated and designated as sensitizing activity. The relative sensitizing activity of the test peptide was calculated as percent of the sensitizing activity of 50 μg/mL pPMBN.
# Klebsiella pneumonia [4] = experiment: as above; assay type: cell-based; details: sensitization towards novobiocin, peptide 50 μg/ml, relative to PMBN
# Protocol: as §2
# E. coli LPS = experiment: Displacement assay of dansyl-PMBN from LPS; assay type: binding; details: for ability to displace Dansyl-PMBN from LPS / affinity to LPS, in words: comparison with PMBN or polymyxin B; for IC50: inhibits 50% of initial fluorescence of 0.55 μM Dansyl-PMBN bound to E. coli-LPS, read-out: Peptides IC50
# Protocol: To determine the binding of a given peptide to LPS, a displacement assay was performed in which 5 or 10 μl (1×10^−5-1×10^−3 M) of the tested peptide at desired concentrations were added at 5 minutes interval to a pre-equilibrated mixture of LPS solution (2 mL, 3 μg/mL, ˜2×10^−7 M) in HEPES buffer (5 mM, pH 7.2) and dansyl-PMBN (0.55 μM). The fluorescence intensity (excitation wavelength of 340 nm and emission wavelength of 485 nm) was recorded after each time interval. Each experiment was repeated 2-3 times. The percent inhibition of fluorescence intensity was plotted as a function of the peptide concentration from which the concentration required for maximal (Imax) and 50% (IC50) displacement of the dansyl-PMBN from LPS was derived.
# Values were calculated as peptide's potency, at a concentration of 50 μg/ml, relatively to PMBN. IC50 values represent peptide concentrations that inhibits 50% of the initial fluorescence of 0.55 μM Dansyl-PMBN bound to E. coli-LPS.
# E. coli = experiment: Minimal inhibitory concentration (MIC) assay; assay type: cell-based; details: compared with PMBN
# Protocol: (§3) Gram-negative bacteria were grown on nutrient agar plates (Difco Laboratories, Detroit, Mich.) and kept at 4° C. An overnight culture in isotonic sensitest broth (ISB, Oxoid) was adjusted to 1×10^5 CFU/mL and inoculated into microtiter plate wells containing each 100 μL of a serial twofold dilution (1000-0.5 μg/mL) of the tested antibiotics in ISB. MIC was defined as the lowest concentration at which there was no visible bacterial growth after incubation for 20 hours at 37° C. The results are reported for 4-8 separate tests that varied by no more than one dilution.
# Klebsiella pneumonia [5] = experiment: Minimal inhibitory concentration (MIC) assay; assay type: cell-based; details: compared with PMBN
# Protocol: as §3
# Gram-negative bacteria [6] = experiment: Antimicrobial activity of the peptide per se (MIC assay); assay type: cell-based; details: peptide alone
# Protocol: as §3
# [7] = system: phagocytosis of E. coli by human monocytes-derived macrophages; experiment: Phagocytosis activity assay; assay type: cell-based
# Protocol: The conjugates and the control peptides were incubated with E. coli (10^6 CFU/mL) prior to the contact with human monocytes-derived macrophages monolayer. After 30 minutes of phagocyte-bacteria encounter, the phagocytes were washed, lysed and the released bacteria allowed to grow for 4.5 hours at 37° C. The amount of trapped bacteria were calculated as a function of absorbency at 600 nm.
# The conjugates and the control peptides were incubated with E. coli (10^6 CFU/mL) prior to the contact with human monocytes-derived macrophages monolayer. After 30 minutes of phagocyte-bacteria encounter, the phagocytes were washed, lysed and the released bacteria allowed to grow for 4.5 hours at 37° C. The amount of trapped bacteria were calculated as a function of absorbency at 600 nm. fMLF by itself (10 μM) enhanced by 2.5 fold the phagocytosis comparing to the control (FIG. 2). […] Tuftsin-PMBN enhanced the phagocytosis by 3 folds comparing to the control.
# [8] = cited from earlier work
# [9] = cited from earlier work; remark: listed apart in the source
# [10] = system: clinical isolates of gram-negative bacteria; details: previous studies (Ofek et al, 1994); cited from earlier work
# [11] = Lam et al., 1986; cited from earlier work
# Gram-negative bacteria [12] = experiment: Sensitization assay, bacterium not specified at the place; assay type: cell-based; details: comparison with PMBN
# Protocol: as §2
molecule,measurement,setting,value
CC[C@H]1OC(=O)[C@H](C)[C@@H](O[C@H]2C[C@@](C)(OC)[C@@H](O)[C@H](C)O2)[C@H](C)[C@@H](O[C@@H]2O[C@H](C)C[C@H](N(C)C)[C@H]2O)[C@](C)(O)C[C@@H](C)C(=O)[C@H](C)[C@@H](O)[C@]1(C)O [Erythromycin],Mice survival (Dead/Total),[1]; erythromycin 10 mg/Kg alone,18/18
same,"protection of mice, in words",[1],all 18 mice who received erythromycin only died
same,Range of MIC,[2],100 to 200 µg/mL
same,Range of MIC,[3],200 µg/mL
CO[C@@H]1[C@@H](OC(N)=O)[C@@H](O)[C@H](Oc2ccc3c(O)c(NC(=O)c4ccc(O)c(CC=C(C)C)c4)c(=O)oc3c2C)OC1(C)C [Novobiocin],Range of MIC,[3],62 to 1000 µg/mL
Formyl-Met-Leu-Phe-Thr-Dab-cyclo[Dab-Dab-dPhe-Leu-Dab-Dab-Thr] [fMLF-PMBN],peptides potency (%) Escherichia coli,Escherichia coli,783%
same,peptides potency (%) Klebsiella pneumonia,Klebsiella pneumonia [4],475%
same,"ability to displace Dansyl-PMBN from LPS / affinity to LPS, in words",E. coli LPS,even lower than PMBN
same,IC50,E. coli LPS,12000 nM
same,effect of the added peptide on MIC of PMBN towards E. coli,E. coli,did not significantly reduce
same,effect of the added peptide on MIC of PMBN towards Klebsiella pneumonia,Klebsiella pneumonia [5],did not significantly reduce
same,antimicrobial activity per se,Gram-negative bacteria [6],did not have antimicrobial activity by it self
same,antimicrobial activity per se,Gram-negative bacteria [6]; listed as PMBN-fMLF,no antimicrobial activity per se
same,"enhancement of phagocytosis, in words",[7]; 1 μM,enhanced the phagocytosis of the bacteria
same,"protection of mice, in words",[1],Almost complete protection
Gentamycin,Range of MIC,[3],1000 µg/mL
Polymyxin B,IC50,E. coli LPS,500 nM
same,Mice survival (Dead/Total),"[1]; 1.5 + 1.5 + 1.5 mg/Kg, no erythromycin",3/18
same,"neuromuscular blockade, neurotoxic or nephrotoxic effects","[8]; dogs, 3 mg/Kg body weight intravenously over a long period",all of which were observed
same,"neuromuscular blockade, neurotoxic or nephrotoxic effects","[9]; rats, 3 mg/Kg body weight intravenously over a long period",all of which were observed
Thr-Dab-cyclo[Dab-Dab-dPhe-Leu-Dab-Dab-Thr] [PMBN],peptides potency (%) Escherichia coli,Escherichia coli,100%
same,peptides potency (%) Klebsiella pneumonia,Klebsiella pneumonia [4],100%
same,IC50,E. coli LPS,4500 nM
same,"protection of mice, in words",[1],partial protection
same,clinical isolates rendered more susceptible to novobiocin,[10],53 out of 53
same,dose that was not lethal (doses as high as),[11],200 mg/Kg body weight
same,"neuromuscular blockade, neurotoxic or nephrotoxic effects","[8]; dog, in vivo, iv, 3 mg/kg",did not cause neuromuscular blockade and neurotoxic or nephrotoxic effects
same,"neuromuscular blockade, neurotoxic or nephrotoxic effects","[9]; rat, in vivo, iv, 3 mg/kg",did not cause neuromuscular blockade and neurotoxic or nephrotoxic effects
Thr-Lys-Pro-Arg-Thr-Dab-cyclo[Dab-Dab-dPhe-Leu-Dab-Dab-Thr] [Tuftsin-PMBN],peptides potency (%) Escherichia coli,Escherichia coli,863%
same,peptides potency (%) Klebsiella pneumonia,Klebsiella pneumonia [4],268%
same,"ability to displace Dansyl-PMBN from LPS / affinity to LPS, in words",E. coli LPS,much higher potency then PMBN
same,IC50,E. coli LPS,700 nM
same,effect of the added peptide on MIC of PMBN towards E. coli,E. coli,did not significantly reduce
same,effect of the added peptide on MIC of PMBN towards Klebsiella pneumonia,Klebsiella pneumonia [5],did not significantly reduce
same,antimicrobial activity per se,Gram-negative bacteria [6],did not have antimicrobial activity by it self
same,antimicrobial activity per se,Gram-negative bacteria [6]; listed as PMBN-tuftsin,no antimicrobial activity per se
same,"sensitizing activity, in words",Gram-negative bacteria [12],increased ability to enhance the permeability of the bacterial outer membrane to novobiocin
same,enhancement of phagocytosis comparing to the control,[7]; concentration not given,3 folds
"formyl-Met-Leu-Phe [fMLF, reference compound]",enhancement of phagocytosis comparing to the control,[7]; 10 μM,2.5 fold
